Assay results reported in patent US9115092B2, “Substituted quinazoline and pyrido-pyrimidine derivatives” (Asana Biosciences, LLC, priority 2010, dated 2015).

Assays:
mTOR kinase = molecular target: T1, mTOR kinase (Homo sapiens, UniProt P42345); experiment: mTOR kinase TR-FRET assay; type: biochemical; details: read-out: mTO R
T1 construct: purchased Millipore, USA
In short: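 TR-FRET read-out (340 nm excitation, 615/665 nm emission) of Thr389 phosphorylation of a ULight-labeled p70 S6K peptide (50 nM) by mTOR, 20 μM ATP, 60 min room temperature after 60 min compound preincubation. Buffer HEPES pH 7.5 with MnCl2, EGTA; IC50 by sigmoidal dose-response.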

[1] = molecular target: T2, PI3Kα (wild-type), P110/P85α (Homo sapiens, UniProt P42336); experiment: PI3 Kinase TR-FRET assay, PI3Kα (wild-type); type: biochemical
T2 construct: made in house; host or cells: SF9 insect cells
T2 sequence (P42336 whole entry): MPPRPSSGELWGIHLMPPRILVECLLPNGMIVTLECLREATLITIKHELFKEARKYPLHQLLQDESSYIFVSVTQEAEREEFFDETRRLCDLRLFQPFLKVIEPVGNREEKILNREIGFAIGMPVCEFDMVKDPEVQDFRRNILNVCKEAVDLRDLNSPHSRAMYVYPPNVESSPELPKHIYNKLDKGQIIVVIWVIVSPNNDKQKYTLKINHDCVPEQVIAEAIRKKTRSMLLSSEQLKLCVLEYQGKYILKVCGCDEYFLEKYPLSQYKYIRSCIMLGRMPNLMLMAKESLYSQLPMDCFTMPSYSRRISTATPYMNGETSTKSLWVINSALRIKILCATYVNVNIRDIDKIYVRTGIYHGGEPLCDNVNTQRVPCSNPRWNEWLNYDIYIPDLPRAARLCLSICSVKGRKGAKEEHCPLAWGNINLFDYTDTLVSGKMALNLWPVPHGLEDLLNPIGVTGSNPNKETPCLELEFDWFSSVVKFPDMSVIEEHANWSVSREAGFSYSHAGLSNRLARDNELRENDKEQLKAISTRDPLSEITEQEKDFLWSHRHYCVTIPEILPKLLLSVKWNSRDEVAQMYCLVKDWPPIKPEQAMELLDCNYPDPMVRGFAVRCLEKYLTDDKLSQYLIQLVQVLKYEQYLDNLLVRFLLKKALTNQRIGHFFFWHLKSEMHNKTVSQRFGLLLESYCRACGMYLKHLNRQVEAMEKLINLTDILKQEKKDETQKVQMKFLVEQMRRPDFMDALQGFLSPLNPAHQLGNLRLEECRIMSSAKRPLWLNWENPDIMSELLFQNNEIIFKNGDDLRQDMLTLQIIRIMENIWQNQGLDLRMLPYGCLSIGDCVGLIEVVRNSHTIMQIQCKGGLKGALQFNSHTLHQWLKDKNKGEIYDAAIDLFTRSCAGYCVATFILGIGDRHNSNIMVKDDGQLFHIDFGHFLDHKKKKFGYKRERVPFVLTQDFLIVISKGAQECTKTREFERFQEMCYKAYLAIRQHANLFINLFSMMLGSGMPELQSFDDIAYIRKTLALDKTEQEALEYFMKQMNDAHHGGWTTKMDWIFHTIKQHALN
T2 sequence (P27986 whole entry partner): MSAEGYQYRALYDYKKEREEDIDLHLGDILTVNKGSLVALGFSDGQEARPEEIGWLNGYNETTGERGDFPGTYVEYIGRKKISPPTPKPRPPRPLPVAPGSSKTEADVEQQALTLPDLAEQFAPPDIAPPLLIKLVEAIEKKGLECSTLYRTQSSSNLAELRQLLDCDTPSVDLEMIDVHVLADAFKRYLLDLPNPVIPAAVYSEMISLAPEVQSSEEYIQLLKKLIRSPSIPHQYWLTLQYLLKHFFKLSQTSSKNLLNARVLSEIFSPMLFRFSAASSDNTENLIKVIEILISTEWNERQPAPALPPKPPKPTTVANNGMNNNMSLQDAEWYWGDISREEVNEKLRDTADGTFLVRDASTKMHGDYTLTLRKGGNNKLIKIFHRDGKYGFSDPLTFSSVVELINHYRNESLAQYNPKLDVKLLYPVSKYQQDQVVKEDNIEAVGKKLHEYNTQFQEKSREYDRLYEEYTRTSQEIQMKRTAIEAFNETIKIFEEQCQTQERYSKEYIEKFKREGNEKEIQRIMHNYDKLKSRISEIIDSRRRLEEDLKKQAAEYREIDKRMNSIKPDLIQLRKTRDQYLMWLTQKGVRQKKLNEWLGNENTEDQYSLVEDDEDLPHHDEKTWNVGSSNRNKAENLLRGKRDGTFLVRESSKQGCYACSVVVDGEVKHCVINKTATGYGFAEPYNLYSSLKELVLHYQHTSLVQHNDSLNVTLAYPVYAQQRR
In short: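 TR-FRET read-out of PIP3 formation via biotin-PIP3 displacement (665/615 nm ratio) gave IC50 curves. Enzyme: 5 ng wild-type P110/P85α from Sf9 cells, 60 min RT with compound and PIP2 (MgCl2 40 mM, DTT 5 mM), then 30 min RT kinase reaction at 10 μM ATP and 10 μM PIP2.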

PC3 cells = experiment: XTT assay for cell viability, PC3 cells; type: cell-based, human; details: Homo sapiens, PC-3, cell viability
Protocol: Using a commercial kit from Sigma Aldrich (Catalog #X34251) and following its protocol, PC3 cells in the log phase of growth were employed and seeded at an optimal density of 1000 cell/well on to 96 well plates and incubated for 24 h followed by the addition of compounds of formula (I) in serial dilutions. Compound dilutions were made in DMSO. The cells were incubated with the compounds of formula (I) for 96 h and XTT tetrazolium dye (Sigma, USA) was subsequently added and incubated at 37° C. After the color formation, absorbance was measured at 465 nm in a Spectramax® Gemini spectrophotometer. EC50 values were calculated using a sigmoidal dose response curve fit in GraphPad Prism® v5 software. The tested compounds of formula (I) which caused inhibition of PC3 cell proliferation as determined by this assay protocol are shown in Table 2.

IC50 (mTOR kinase) [nM]	IC50 [1] [nM]	IC50 (PC3 cells) [nM]	SMILES
< 50	< 50	< 100	CN(C)C(=O)c1ccc(NC(=O)Nc2ccc(-c3nc(N4CCOCC4)c4ncc(-c5cncnc5)cc4n3)cc2)cc1 [Example 9, N,N-Dimethyl-4-{3-[4-(4-morpholin-4-yl-7-pyrimidin-5-yl-pyrido[3,2-d]-pyrimidin-2-yl)-phenyl]-ureido}-benzamide]
50 to 200	50 to 200	100 to 500	CC(=O)Nc1ccc(NC(=O)Nc2ccc(-c3nc(N4CCOCC4)c4ccc(-c5ccc(C)o5)cc4n3)cc2)cc1 [Example 17, N-(4-(3-(4-(7-(5-methylfuran-2-yl)-4-morpholino-quinazolin-2-yl)phenyl)ureido)phenyl)acetamide]
< 50	50 to 200	100 to 500	CN(C)C(=O)c1ccc(NC(=O)Nc2ccc(-c3nc(N4CCOCC4)c4ccc(-c5cccnc5F)cc4n3)cc2)cc1 [Example 21, 4-(3-{4-[7-(2-fluoro-pyridin-3-yl)-4-morpholin-4-yl-quinazolin-2-yl]-phenyl}-ureido)-N,N-dimethyl-benzamide]
50 to 200	< 50	501 to 5000	CN(C)C(=O)c1ccc(NC(=O)Nc2ccc(-c3nc(N4CCOCC4)c4ccc(-c5cccc(NS(C)(=O)=O)c5)cc4n3)cc2)cc1 [Example 23, 4-(3-{4-[7-(3-methanesulfonylamino-phenyl)-4-morpholin-4-yl-quinazolin-2-yl]-phenyl}-ureido)-N,N-dimethyl-benzamide]
50 to 200	50 to 200	501 to 5000	CS(=O)(=O)c1cccc(-c2ccc3c(N4CCOCC4)nc(-c4ccc(NC(=O)Nc5ccc(C(N)=O)cc5)cc4)nc3c2)c1 [Example 25, 4-(3-{4-[7-(3-methanesulfonyl-phenyl)-4-morpholin-4-yl-quinazolin-2-yl]-phenyl}-ureido)-benzamide]
< 50	< 50	< 100	CN1CCN(C(=O)c2ccc(NC(=O)Nc3ccc(-c4nc(N5CCOCC5)c5ccc(-c6cccnc6F)cc5n4)cc3)cc2)CC1 [Example 26, 1-{4-[7-(2-fluoro-pyridin-3-yl)-4-morpholin-4-yl-quinazolin-2-yl]-phenyl}-3-[4-(4-methyl-piperazine-1-carbonyl)-phenyl]-urea]
< 50	50 to 200	< 100	CN1CCN(C(=O)c2ccc(NC(=O)Nc3ccc(-c4nc(N5CCOCC5)c5ccc(-c6cnn(C)c6)cc5n4)cc3)cc2)CC1 [Example 27, 1-[4-(4-methyl-piperazine-1-carbonyl)-phenyl]-3-{4-[7-(1-methyl-1H-pyrazol-4-yl)-4-morpholin-4-yl-quinazolin-2-yl]-phenyl}-urea]
< 50	50 to 200	< 100	CN(C)C(=O)c1ccc(NC(=O)Nc2ccc(-c3nc(N4CCOCC4)c4ccc(-c5cccnc5F)cc4n3)cc2)cn1 [Example 28, 5-(3-{4-[7-(2-fluoro-pyridin-3-yl)-4-morpholin-4-yl-quinazolin-2-yl]-phenyl}-ureido)-pyridine-2-carboxylic acid dimethylamide]
< 50	< 50	< 100	CN(C)C(=O)c1ccc(NC(=O)Nc2ccc(-c3nc(N4CCOCC4)c4cc(F)c(-c5cccnc5)cc4n3)cc2)cc1 [Example 29, 4-{3-[4-(6-fluoro-4-morpholin-4-yl-7-pyridin-3-yl-quinazolin-2-yl)-phenyl]-ureido}-N,N-dimethyl-benzamide]
< 50	< 50	< 100	CN(C)C(=O)c1ccc(NC(=O)Nc2ccc(-c3nc(N4CCOCC4)c4cc(F)c(-c5cncnc5)cc4n3)cc2)cc1 [Example 30, 4-{3-[4-(6-fluoro-4-morpholin-4-yl-7-pyrimidin-5-yl-quinazolin-2-yl)-phenyl]-ureido}-N,N-dimethyl-benzamide]
< 50	50 to 200	100 to 500	CN(C)C(=O)c1ccc(NC(=O)Nc2ccc(-c3nc(N4CCOCC4)c4ccc(-c5cccc(S(C)(=O)=O)c5)cc4n3)cc2)cn1 [Example 31, 5-(3-{4-[7-(3-methanesulfonyl-phenyl)-4-morpholin-4-yl-quinazolin-2-yl]-phenyl}-ureido)-pyridine-2-carboxylic acid dimethylamide]
< 50	< 50	501 to 5000	CN1CCN(C(=O)c2ccc(NC(=O)Nc3ccc(-c4nc(N5CCOCC5)c5ccc(-c6cccc(S(C)(=O)=O)c6)cc5n4)cc3)cc2)CC1 [Example 32, 1-(4-(4-methylpiperazine-1-carbonyl)phenyl)-3-(4-(7-(3-(methylsulfonyl)phenyl)-4-morpholino-quinazolin-2-yl)phenyl)urea]
< 50	< 50	< 100	CN(C)C(=O)c1ccc(NC(=O)Nc2ccc(-c3nc(N4CCOCC4)c4ccc(-c5cncc(S(C)(=O)=O)c5)cc4n3)cc2)cc1 [Example 34, 4-(3-{4-[7-(5-methanesulfonyl-pyridin-3-yl)-4-morpholin-4-yl-qinazolin-2-yl]-phenyl}-ureido)-N,N-dimethyl-benzamide]
< 50	< 50	< 100	CN(C)C(=O)c1ccc(NC(=O)Nc2ccc(-c3nc(N4CCOCC4)c4cc(F)c(-c5cccc(S(C)(=O)=O)c5)cc4n3)cc2)cc1 [Example 36, 4-(3-{4-[6-fluoro-7-(3-methanesulfonyl-phenyl)-4-morpholin-4-yl-quinazolin-2-yl]-phenyl}-ureido)-N,N-dimethyl-benzamide]
50 to 200	50 to 200	100 to 500	CN1CCN(C(=O)c2ccc(NC(=O)Nc3ccc(-c4nc(N5CCOCC5)c5ccc(-c6ccsc6)cc5n4)cc3)cc2)CC1 [Example 37, 1-[4-(4-methyl-piperazine-1-carbonyl)-phenyl]-3-[4-(4-morpholin-4-yl-7-thiophen-3-yl-quinazolin-2-yl)-phenyl]-urea]
< 50	< 50	< 100	CN(C)C(=O)c1ccc(NC(=O)Nc2ccc(-c3nc(N4CCOCC4)c4cc(F)c(-c5cncc(S(C)(=O)=O)c5)cc4n3)cc2)cc1 [Example 38, 4-(3-{4-[6-fluoro-7-(5-methanesulfonyl-pyridin-3-yl)-4-morpholin-4-yl-quinazolin-2-yl]-phenyl}-ureido)-N,N-dimethyl-benzamide]
< 50	< 50	< 100	CN(C)C(=O)c1ccc(NC(=O)Nc2ccc(-c3nc(N4CCOCC4)c4ncc(-c5cccc(S(C)(=O)=O)c5)cc4n3)cc2)cc1 [Example 39, 4-(3-{4-[7-(3-methanesulfonyl-phenyl)-4-morpholin-4-yl-pyrido[3,2-d]pyrimidin-2-yl]-phenyl}-ureido)-N,N-dimethyl-benzamide]
< 50	< 50	100 to 500	Cc1ccc(-c2cnc3c(N4CCOCC4)nc(-c4ccc(NC(=O)Nc5ccc(C(=O)N(C)C)cc5)cc4)nc3c2)o1 [Example 43, N,N-dimethyl-4-(3-{4-[7-(5-methyl-furan-2-yl)-4-morpholin-4-yl-pyrido[3,2-d]pyrimidin-2-yl]-phenyl}-ureido)-benzamide]
< 50	< 50	< 100	CN(C)C(=O)c1ccc(NC(=O)Nc2ccc(-c3nc(N4CCOCC4)c4ccc(-c5cccc(CO)c5)cc4n3)cc2)cc1 [Example 45, 4-(3-{4-[7-(3-hydroxymethyl-phenyl)-4-morpholin-4-yl-quinazolin-2-yl]-phenyl}-ureido)-N,N-dimethyl-benzamide]
50 to 200	< 50	100 to 500	CN(C)C(=O)c1ccc(NC(=O)Nc2ccc(-c3nc(N4CCOCC4)c4ccc(-c5ccsc5)cc4n3)cc2)cc1 [Example 52, N,N-dimethyl-4-{3-[4-(4-morpholin-4-yl-7-thiophen-3-yl-quinazolin-2-yl)-phenyl]-ureido}-benzamide]
50 to 200	50 to 200	100 to 500	CN(C)C(=O)c1ccc(NC(=O)Nc2ccc(-c3nc(N4CCOCC4)c4ccc(-c5ccoc5)cc4n3)cc2)cc1 [Example 53, 4-{3-[4-(7-furan-3-yl-4-morpholin-4-yl-quinazolin-2-yl)-phenyl]-ureido}-N,N-dimethyl-benzamide]
< 50	< 50	501 to 5000	CN(C)C(=O)c1ccc(NC(=O)Nc2ccc(-c3nc(N4CCOCC4)c4ccc(-c5ccncc5)cc4n3)cc2)cc1 [Example 58, N,N-dimethyl-4-{3-[4-(4-morpholin-4-yl-7-pyridin-4-yl-quinazolin-2-yl)-phenyl]-ureido}-benzamide]
< 50	< 50	< 100	CN(C)C(=O)c1ccc(NC(=O)Nc2ccc(-c3nc(N4CCOCC4)c4ccc(-c5cnc6ccccc6c5)cc4n3)cc2)cc1 [Example 59, N,N-dimethyl-4-{3-[4-(4-morpholin-4-yl-7-quinolin-3-yl-quinazolin-2-yl)-phenyl]-ureido}-benzamide]
